Source: patent US9193736B2, “PDE 10a inhibitors for the treatment of type II diabetes” (Janssen Pharmaceutica, NV, priority 2013, dated 2015)
pIC50: −log10 of the molar value. Structures can show the parent of a compound that is named as a salt.

Assays:
[1] = PDE10a perfused brain permeability study: plasma concentrations at 30 and 120 min, brain concentration at 120 min, brain/plasma ratio; details: male, Sprague-Dawley, rat; for Kp at 2 h: brain/plasma
Description: PDE10a-Brain Permeability Assay
A. PDE10a-Perfused Brain Permeability Study Protocol
Drug administration by oral gavage, subcutaneous injection or intravenous was carried out using male Sprague Dawley rats under IACUC protocol (SH-MET3010). Male Sprague Dawley rats (Charles River) ˜300-350 g were maintained on a 4% standard rodent diet (Test Diet 5001). They are allowed ad libitum access to water and food. Room temperature was maintained at 64° F. and humidity at 30-70%.
Three animals per compound were provided a dose of 2 mg/mL in 20% HpbCD/Tris pH 8 by tail i.v. or 30 mpk p.o. or s.c. in 20% HpbCD/Tris pH 8, with PDE10a antagonists. A first blood sample was collected at 30 min via retro-orbital sinus (anesthetic by 70% CO2/30% O2) into heparinzed plasma separator tubes. The blood was centrifuged and 100 μL plasma was placed into a 96 well plate and saved on dry ice.
After the 120 min, the final blood sample was collected via retro-orbital sinus under anesthesia by IP 0.5 cc injection of a 4/1 mixture of Ketaset: AnaSed [(prepared 10 mL Ketaset (100 mg/mL Ketamine)+2.5 mL AnaSed (20 mg/mL Xylazine)]. The rats were then perfused with 400 mL heparinized saline (10,000 units/L) through the left ventricle of the heart; the brains were then removed (not including the medulla), weighed and homogenized in PBS (4 mL/g tissue). The samples were stored at −80° C. and submitted for chemical analysis of blood and brain concentrations. Endpoints of sample analysis consists of the plasma concentrations at 30 and 120 min, plus brain concentrations at 120 min.

[2] = target: Human recombinant PDE10A2 (Homo sapiens (Human), UniProt Q9Y233); test: In vitro hPDE10a: human recombinant PDE10A2 scintillation proximity assay, IC50; format: biochemical; details: human recombinant PDE10A2, SPA, 60 nM cAMP; read-out: hPDE10a2 IC50
Chain of Human recombinant PDE10A2 (Q9Y233 267-1055): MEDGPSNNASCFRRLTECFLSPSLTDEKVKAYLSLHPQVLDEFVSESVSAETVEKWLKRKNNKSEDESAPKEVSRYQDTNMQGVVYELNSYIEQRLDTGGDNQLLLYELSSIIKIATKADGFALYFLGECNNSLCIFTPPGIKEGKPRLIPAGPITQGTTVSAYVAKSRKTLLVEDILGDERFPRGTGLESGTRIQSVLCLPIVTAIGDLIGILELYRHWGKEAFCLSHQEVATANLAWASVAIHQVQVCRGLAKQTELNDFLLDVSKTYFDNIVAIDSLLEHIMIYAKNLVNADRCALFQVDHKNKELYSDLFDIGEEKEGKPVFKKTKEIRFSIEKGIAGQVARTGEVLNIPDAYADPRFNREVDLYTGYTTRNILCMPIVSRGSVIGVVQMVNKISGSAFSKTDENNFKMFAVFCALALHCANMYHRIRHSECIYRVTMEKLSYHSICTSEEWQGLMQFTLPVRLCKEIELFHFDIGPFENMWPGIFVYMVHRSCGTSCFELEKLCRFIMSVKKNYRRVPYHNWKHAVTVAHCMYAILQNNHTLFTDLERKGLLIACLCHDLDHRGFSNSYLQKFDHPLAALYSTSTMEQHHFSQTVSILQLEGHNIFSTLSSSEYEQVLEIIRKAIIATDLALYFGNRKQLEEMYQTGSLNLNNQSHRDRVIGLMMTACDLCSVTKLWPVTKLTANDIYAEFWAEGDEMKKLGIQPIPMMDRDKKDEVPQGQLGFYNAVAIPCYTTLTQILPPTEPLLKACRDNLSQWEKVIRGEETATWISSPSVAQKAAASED
How it was run: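 Purified recombinant human PDE10A2 (Ni-sepharose) was assayed by SPA, counting [3H]-AMP product captured on yttrium silicate beads added in zinc sulphate stop solution. Inhibition was expressed as % of activity without compound, with a no-enzyme low control. Repeat data points were aggregated.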

[3] = target: Rat recombinant PDE10a (rPDE10a) (Rattus norvegicus (Rat), UniProt Q9QYJ6); test: In vitro assay PDE10a: rat recombinant PDE10a SPA with 3H-cAMP substrate, IC50; format: biochemical; details: 60 nM cAMP, read-out: rPDE10a2 IC50
Chain of Rat recombinant PDE10a (rPDE10a) (Q9QYJ6 whole entry): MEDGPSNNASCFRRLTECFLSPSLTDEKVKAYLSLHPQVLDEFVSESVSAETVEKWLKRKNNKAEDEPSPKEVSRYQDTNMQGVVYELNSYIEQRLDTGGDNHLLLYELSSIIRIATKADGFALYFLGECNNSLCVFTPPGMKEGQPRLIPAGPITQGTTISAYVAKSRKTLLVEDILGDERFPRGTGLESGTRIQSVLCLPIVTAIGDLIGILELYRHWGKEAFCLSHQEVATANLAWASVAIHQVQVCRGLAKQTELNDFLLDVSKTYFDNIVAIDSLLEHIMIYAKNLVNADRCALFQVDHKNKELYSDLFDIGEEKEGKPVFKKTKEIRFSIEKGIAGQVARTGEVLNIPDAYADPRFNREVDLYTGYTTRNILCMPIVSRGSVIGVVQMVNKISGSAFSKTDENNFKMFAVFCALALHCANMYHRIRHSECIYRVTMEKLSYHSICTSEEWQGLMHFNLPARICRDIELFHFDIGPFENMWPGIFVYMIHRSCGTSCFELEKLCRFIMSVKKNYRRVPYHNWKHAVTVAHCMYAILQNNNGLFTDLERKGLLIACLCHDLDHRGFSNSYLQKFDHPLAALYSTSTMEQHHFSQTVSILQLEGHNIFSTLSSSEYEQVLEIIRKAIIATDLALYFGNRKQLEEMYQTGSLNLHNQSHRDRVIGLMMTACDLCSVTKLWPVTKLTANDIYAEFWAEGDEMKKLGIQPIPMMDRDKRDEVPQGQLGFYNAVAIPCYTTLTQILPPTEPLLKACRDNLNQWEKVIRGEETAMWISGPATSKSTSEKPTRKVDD
How it was run: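 Enzyme expressed in Sf9 cells via baculovirus and Ni-sepharose purified; reaction with 3H-cAMP ran 60 min at rt, stopped with PDE SPA beads. Compounds diluted in DMSO at 100-fold final concentration; blanks omitted enzyme.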

Row | SMILES | concentration at 2 h ([1]; brain) [ng/g] | Kp at 2 h [1] | concentration at 2 h ([1]; plasma) [ng/mL] | pIC50 [2] | pIC50 [3]
1 | O=C(O)C1CCN(c2ccc(-c3c(/C=C/c4ccc5ccccc5n4)nc4c(N5CCOCC5)ccnn34)cc2)CC1 [Cpd 100, (E)-1-(4-(8-Morpholino-2-(2-(quinolin-2-yl)vinyl)imidazo[1,2-b]pyridazin-3-yl)phenyl)piperidine-4-carboxylic acid trifluoroacetic acid salt] | 60.7 | 0.02 | 2840 | 8.52 | 8.22
2 | O=c1[nH]c(-c2ccc(-c3c(/C=C/c4ccc5ccccc5n4)nc4c(N5CCOCC5)ccnn34)cc2)no1 [Cpd 102, (E)-3-(4-(8-Morpholino-2-(2-(quinolin-2-yl)vinyl)imidazo[1,2-b]pyridazin-3-yl)phenyl)-1,2,4-oxadiazol-5(4H)-one] | 0 | 0 | 155 | 8.40 | 8.30
3 | O=C(O)c1cccc(-c2c(/C=C/c3ccc4ccccc4n3)nc3c(N4CCOCC4)ccnn23)c1 [Cpd 124, (E)-3-(8-Morpholino-2-(2-(quinolin-2-yl)vinyl)imidazo[1,2-b]pyridazin-3-yl)benzoic acid] | 0 | 0 | 86.6 | 8.40 | 8.05
4 | O=C(O)CCc1ccc(-c2c(/C=C/c3ccc4ccccc4n3)nc3c(N4CCOCC4)ccnn23)cn1 [Cpd 125, (E)-3-(5-(8-Morpholino-2-(2-(quinolin-2-yl)vinyl)imidazo[1,2-b]pyridazin-3-yl)pyridin-2-yl)propanoic acid] | 0 | 0 | 284 | 8.70 | 8.70
5 | O=C(O)CCc1ccc(-c2c(/C=C/c3ccc4ccccc4n3)nc3c(N4CCOCC4)ccnn23)cc1 [Cpd 128, 3-(4-{8-Morpholin-4-yl-2-[(E)-2-quinolin-2-ylethenyl]imidazo[1,2-b]pyridazin-3-yl}phenyl)propanoic acid] | 0 | 0 | 314 | 8.30 | 8.30
6 | CS(=O)(=O)NC(=O)c1ccc(-c2c(/C=C/c3ccc4ccccc4n3)nc3c(N4CCOCC4)ccnn23)cc1 [compound 39, (E)-N-(Methylsulfonyl)-4-(8-morpholino-2-(2-(quinolin-2-yl)vinyl)imidazo[1,2-b]pyridazin-3-yl)benzamide] | 0 | 0 | 147 | 8.30 | 8.52
7 | O=C(O)c1ccc(-c2c(/C=C/c3ccc4ccccc4n3)nc3c(N4CCOCC4)ccnn23)cc1 [compound 40, (E)-4-(8-Morpholino-2-(2-(quinolin-2-yl)vinyl)imidazo[1,2-b]pyridazin-3-yl)benzoic acid trifluoroacetic acid salt] | 0 | 0 | 499 | 8.70 | 8.70
8 | O=C(O)c1ccc(-c2c(CCc3ccc4ccccc4n3)nc3c(N4CCOCC4)ccnn23)cc1 [compound 41, 4-(8-Morpholino-2-(2-(quinolin-2-yl)ethyl)imidazo[1,2-b]pyridazin-3-yl)benzoic acid] | 0 | 0 | 38 | 9.00 | 9.00
9 | CC(=O)NS(=O)(=O)c1ccc(-c2c(CCc3ccc4ccccc4n3)nc3c(N4CCOCC4)ccnn23)cc1 [compound 42, N-((4-(8-Morpholino-2-(2-(quinolin-2-yl)ethyl)imidazo[1,2-b]pyridazin-3-yl)phenyl)sulfonyl)acetamide] | 0 | 0 | 34 | 9.00 | 9.00
